Reference: PubChem BioAssay AID1963861 (Molecular Pharmacology Branch, DTP, NCI, 2024)
pIC50: −log10 of the molar value.

Tested on: 885724-159-R-J1-PDC KRAS PDC multicell spheroid viability
Experiment: Anticancer human tumor 885724-159-R-J1-PDC patient-derived pancreatic adenocarcinoma cell line growth inhibition [KRAS2]
Conditions: for pIC50: curve of first compound; for viability, T/C: stronger effect = lower value
How it was run: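 KRAS-mutant tumor cells were grown as spheroids with HUVEC endothelial cells and human MSCs as stroma. Targeted agents were tested alone and with KRAS pathway inhibitors. Doses started at or near clinical Cmax, or 10 microM, descending half-log.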

[1] = second compound 0.1 µM, first compound 0.0316 µM
[2] = second compound 0.1 µM, first compound 0.1 µM
[3] = second compound 0.316 µM, first compound 0.0316 µM
[4] = second compound 0.316 µM, first compound 0.1 µM
[5] = second compound 1 µM, first compound 0.0316 µM
[6] = second compound 1 µM, first compound 0.1 µM
[7] = second compound 3.16 µM, first compound 0.0316 µM
[8] = second compound 3.16 µM, first compound 0.1 µM
[9] = second compound 10 µM, first compound 0.0316 µM
[10] = second compound 10 µM, first compound 0.1 µM
[11] = second compound 0.1 µM, first compound 0.316 µM
[12] = second compound 0.1 µM, first compound 1 µM
[13] = second compound 0.1 µM, first compound 3.16 µM
[14] = second compound 0.1 µM, first compound 10 µM
[15] = second compound 0.316 µM, first compound 0.316 µM
[16] = second compound 0.316 µM, first compound 1 µM
[17] = second compound 0.316 µM, first compound 3.16 µM
[18] = second compound 0.316 µM, first compound 10 µM
[19] = second compound 1 µM, first compound 0.316 µM
[20] = second compound 1 µM, first compound 1 µM
[21] = second compound 1 µM, first compound 3.16 µM
[22] = second compound 1 µM, first compound 10 µM
[23] = second compound 3.16 µM, first compound 0.316 µM
[24] = second compound 3.16 µM, first compound 1 µM
[25] = second compound 3.16 µM, first compound 3.16 µM
[26] = second compound 3.16 µM, first compound 10 µM
[27] = second compound 10 µM, first compound 0.316 µM
[28] = second compound 10 µM, first compound 1 µM
[29] = second compound 10 µM, first compound 3.16 µM
[30] = second compound 10 µM, first compound 10 µM
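Also: spheroids exposed to agents for 7 days before readout.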

Structure (SMILES)	pIC50 (second compound 0.1 µM)	pIC50 (second compound 0.316 µM)	pIC50 (second compound 1 µM)	pIC50 (second compound 3.16 µM)	pIC50 (second compound 10 µM)	viability, T/C [1]	viability, T/C [2]	viability, T/C [3]	viability, T/C [4]	viability, T/C [5]	viability, T/C [6]	viability, T/C [7]	viability, T/C [8]	viability, T/C [9]	viability, T/C [10]	viability, T/C [11]	viability, T/C [12]	viability, T/C [13]	viability, T/C [14]	viability, T/C [15]	further results
CN(C)C/C=C/C(=O)Nc1cc2c(Nc3ccc(F)c(Cl)c3)ncnc2cc1O[C@H]1CCOC1 + CC1OCC2(CCN(c3cnc(Sc4ccnc(N)c4Cl)c(N)n3)CC2)C1N	< 7.00	< 7.00	< 7.00	< 7.00	< 7.00	71.8%	68%	78.6%	71.5%	105%	89.2%	67.1%	62.8%	104%	92%	–	–	–	–	–	viability, T/C (second compound 0.1 µM, first compound 0.000316 µM): 112%; viability, T/C (second compound 0.1 µM, first compound 0.001 µM): 105%; viability, T/C (second compound 0.1 µM, first compound 0.00316 µM): 105%; viability, T/C (second compound 0.1 µM, first compound 0.01 µM): 89.4%; viability, T/C (second compound 0.316 µM, first compound 0.000316 µM): 103%; viability, T/C (second compound 0.316 µM, first compound 0.001 µM): 102%; viability, T/C (second compound 0.316 µM, first compound 0.00316 µM): 90.7%; viability, T/C (second compound 0.316 µM, first compound 0.01 µM): 81.3%; viability, T/C (second compound 1 µM, first compound 0.000316 µM): 150%; viability, T/C (second compound 1 µM, first compound 0.001 µM): 144%; viability, T/C (second compound 1 µM, first compound 0.00316 µM): 136%; viability, T/C (second compound 1 µM, first compound 0.01 µM): 121%; viability, T/C (second compound 3.16 µM, first compound 0.000316 µM): 88.1%; viability, T/C (second compound 3.16 µM, first compound 0.001 µM): 88%; viability, T/C (second compound 3.16 µM, first compound 0.00316 µM): 77.8%; viability, T/C (second compound 3.16 µM, first compound 0.01 µM): 72.8%; viability, T/C (second compound 10 µM, first compound 0.000316 µM): 147%; viability, T/C (second compound 10 µM, first compound 0.001 µM): 149%; viability, T/C (second compound 10 µM, first compound 0.00316 µM): 140%; viability, T/C (second compound 10 µM, first compound 0.01 µM): 116%
COC(=O)c1ccc2c(C(=Nc3ccc(N(C)C(=O)CN4CCN(C)CC4)cc3)c3ccccc3)c(O)[nH]c2c1 + CC1OCC2(CCN(c3cnc(Sc4ccnc(N)c4Cl)c(N)n3)CC2)C1N	5.69	5.74	5.82	5.85	5.96	95%	95.8%	91.4%	84.9%	67.3%	69.3%	66.9%	74.1%	62%	68.8%	92.2%	94.2%	21.9%	0.87%	80.9%	viability, T/C [16]: 86.4%; viability, T/C [17]: 17.1%; viability, T/C [18]: 0.39%; viability, T/C [19]: 73.8%; viability, T/C [20]: 70.2%; viability, T/C [21]: 14.8%; viability, T/C [22]: 1.25%; viability, T/C [23]: 78.2%; viability, T/C [24]: 66%; viability, T/C [25]: 10.4%; viability, T/C [26]: 0.29%; viability, T/C [27]: 61.4%; viability, T/C [28]: 53.9%; viability, T/C [29]: 2.07%; viability, T/C [30]: 0.63%
O=C(c1cc(Cc2n[nH]c(=O)c3ccccc23)ccc1F)N1CCN(C(=O)C2CC2)CC1 + CC1OCC2(CCN(c3cnc(Sc4ccnc(N)c4Cl)c(N)n3)CC2)C1N	< 5.00	< 5.00	< 5.00	< 5.00	< 5.00	111%	113%	103%	109%	145%	149%	81%	90.4%	78.3%	87.4%	106%	104%	100%	95.8%	104%	viability, T/C [16]: 103%; viability, T/C [17]: 104%; viability, T/C [18]: 89.6%; viability, T/C [19]: 143%; viability, T/C [20]: 137%; viability, T/C [21]: 118%; viability, T/C [22]: 104%; viability, T/C [23]: 85.1%; viability, T/C [24]: 86%; viability, T/C [25]: 78.9%; viability, T/C [26]: 77.6%; viability, T/C [27]: 132%; viability, T/C [28]: 81%; viability, T/C [29]: 70.7%; viability, T/C [30]: 67.1%
